Source: PubChem BioAssay AID1745844 (Carcinogenic Potency Database (CPDB), 2022)
Calls of active or inactive are those of the source. No rule for the calls is given here.

Tested on: rodent lifetime carcinogenesis bioassay, tumor incidence TD50
Experiment: carcinogenic potency in animals, long-term in vivo studies, CPDB compilation (AID 1745844)

With `COc1ccc(CCN2CCC(Nc3nc4ccccc4n3Cc3ccc(F)cc3)CC2)cc1` the TD50 (mouse, strain Swiss, females, in feed, site: any site (literature study), lesion: several types, types named in the paper, dosed 78 weeks, study length 78 weeks) was 164 mg/kg/day (inactive), the carcinogen call (mouse, strain Swiss, females, in feed, site: liver, lesion: hepatocellular adenoma, dosed 78 weeks, study length 78 weeks) was “negative (inactive)” and the carcinogen call (mouse, strain Swiss, females, in feed, site: lung, lesion: one or several types, types not named, dosed 78 weeks, study length 78 weeks) was “negative (inactive)”. The carcinogen call (mouse, strain Swiss, males, in feed, site: any site (literature study), lesion: several types, types named in the paper, dosed 78 weeks, study length 78 weeks) was “negative (inactive)”, the TD50 (mouse, strain Swiss, males, in feed, site: liver, lesion: hepatocellular adenoma, dosed 78 weeks, study length 78 weeks) was 8770 mg/kg/day (inactive) and the TD50 (mouse, strain Swiss, males, in feed, site: liver, lesion: hepatocellular carcinoma, dosed 78 weeks, study length 78 weeks) was 788 mg/kg/day (inactive). The carcinogen call (mouse, strain Swiss, males, in feed, site: lung, lesion: one or several types, types not named, dosed 78 weeks, study length 78 weeks) was “negative (inactive)”, the carcinogen call (rat, strain Charles River Crl:COBS(WI)BR, females, in feed, site: any site (literature study), lesion: several types, types named in the paper, dosed 105 weeks, study length 105 weeks) was “negative (inactive)” and the TD50 (rat, strain Charles River Crl:COBS(WI)BR, females, in feed, site: liver, lesion: neoplastic nodule, dosed 105 weeks, study length 105 weeks) was 309 mg/kg/day (inactive). For the same compound, the TD50 (rat, strain Charles River Crl:COBS(WI)BR, males, in feed, site: any site (literature study), lesion: several types, types named in the paper, dosed 105 weeks, study length 105 weeks) was 32.5 mg/kg/day (inactive) and the carcinogen call (rat, strain Charles River Crl:COBS(WI)BR, males, in feed, site: liver, lesion: neoplastic nodule, dosed 105 weeks, study length 105 weeks) was “negative (inactive)”.
With `CCOC(=O)C1OC1(C)c1ccccc1` (stereo unspecified) the TD50 (rat, strain Wistar, females, in feed, site: any site (literature study), lesion: benign tumor, dosed 104 weeks, study length 104 weeks) was 253 mg/kg/day (inactive), the TD50 (rat, strain Wistar, females, in feed, site: any site (literature study), lesion: malignant tumor, dosed 104 weeks, study length 104 weeks) was 2230 mg/kg/day (inactive) and the TD50 (rat, strain Wistar, females, in feed, site: liver, lesion: hemangioendothelioma, dosed 104 weeks, study length 104 weeks) was 9360 mg/kg/day (inactive). For the same compound, the TD50 (rat, strain Wistar, females, in feed, site: pituitary gland, lesion: adenoma, dosed 104 weeks, study length 104 weeks) was 331 mg/kg/day (inactive), the TD50 (rat, strain Wistar, males, in feed, site: any site (literature study), lesion: benign tumor, dosed 104 weeks, study length 104 weeks) was 1150 mg/kg/day (inactive) and the TD50 (rat, strain Wistar, males, in feed, site: any site (literature study), lesion: malignant tumor, dosed 104 weeks, study length 104 weeks) was 4110 mg/kg/day (inactive). For the same compound, the carcinogen call (rat, strain Wistar, males, in feed, site: liver, lesion: one or several types, types not named, dosed 104 weeks, study length 104 weeks) was “negative (inactive)” and the TD50 (rat, strain Wistar, males, in feed, site: testis, lesion: interstitial-cell tumor, dosed 104 weeks, study length 104 weeks) was 1150 mg/kg/day (inactive).
With `O[C@H]([C@H](O)[C@@H](O)CBr)[C@H](O)CBr` the TD50 (mouse, strain Swiss, females, i.p., site: all sites, lesion: leukemia, dosed 26 weeks, study length 78 weeks) was 46.3 mg/kg/day, the TD50 (mouse, strain Swiss, females, i.p., site: all sites, lesion: lymphosarcoma, dosed 26 weeks, study length 78 weeks) was 12.2 mg/kg/day and the TD50 (mouse, strain Swiss, females, i.p., site: any site (literature study), lesion: benign tumor, dosed 26 weeks, study length 78 weeks) was 24.5 mg/kg/day. For the same compound, the TD50 (mouse, strain Swiss, females, i.p., site: any site (literature study), lesion: malignant tumor, dosed 26 weeks, study length 78 weeks) was 4.75 mg/kg/day, the TD50 (mouse, strain Swiss, females, i.p., site: any site (literature study), lesion: several types, types named in the paper, dosed 26 weeks, study length 78 weeks) was 2.45 mg/kg/day and the TD50 (mouse, strain Swiss, females, i.p., site: lung, lesion: several types, types named in the paper, dosed 26 weeks, study length 78 weeks) was 9.23 mg/kg/day. The TD50 (mouse, strain Swiss, males, i.p., site: all sites, lesion: lymphatic leukemia, dosed 26 weeks, study length 78 weeks) was 32.4 mg/kg/day, the TD50 (mouse, strain Swiss, males, i.p., site: all sites, lesion: lymphosarcoma, dosed 26 weeks, study length 78 weeks) was 17.6 mg/kg/day and the TD50 (mouse, strain Swiss, males, i.p., site: any site (literature study), lesion: malignant tumor, dosed 26 weeks, study length 78 weeks) was 15.2 mg/kg/day. For the same compound, the TD50 (mouse, strain Swiss, males, i.p., site: any site (literature study), lesion: several types, types named in the paper, dosed 26 weeks, study length 78 weeks) was 12.7 mg/kg/day, the TD50 (mouse, strain Swiss, males, i.p., site: lung, lesion: several types, types named in the paper, dosed 26 weeks, study length 78 weeks) was 13.5 mg/kg/day and the TD50 (rat, strain Charles River CD (Sprague-Dawley), males, i.p., site: all sites, lesion: lymphosarcoma, dosed 26 weeks, study length 78 weeks) was 182 mg/kg/day. For the same compound, the TD50 (rat, strain Charles River CD (Sprague-Dawley), males, i.p., site: any site (literature study), lesion: malignant tumor, dosed 26 weeks, study length 78 weeks) was 5.05 mg/kg/day, the TD50 (rat, strain Charles River CD (Sprague-Dawley), males, i.p., site: any site (literature study), lesion: several types, types named in the paper, dosed 26 weeks, study length 78 weeks) was 3.13 mg/kg/day and the TD50 (rat, strain Charles River CD (Sprague-Dawley), males, i.p., site: mammary gland, lesion: squamous-cell carcinoma, dosed 26 weeks, study length 78 weeks) was 182 mg/kg/day. It also gave a TD50 (rat, strain Charles River CD (Sprague-Dawley), males, i.p., site: peritoneum, lesion: sarcoma, dosed 26 weeks, study length 78 weeks) of 59.2 mg/kg/day and a TD50 (rat, strain Charles River CD (Sprague-Dawley), males, i.p., site: skin, lesion: several types, types named in the paper, dosed 26 weeks, study length 78 weeks) of 8.37 mg/kg/day.
